Kd and inhibition data for two compounds are collected here from article PMC2837340 (ACS Chemical Neuroscience, 2009).

Assay [1] deals with horse spleen apoferritin (HSAF) (Equus caballus, UniProt P02791). Kind of assay: isothermal titration calorimetry. It is filed as binding. On the technique in general: Isothermal titration calorimetry measures the heat released or taken up as one component is titrated into another.
Assay [2] addresses T1, Shaw2 K+ channel (Shaw2 F335A) (Drosophila melanogaster, UniProt P17972, F335A).
T1 sequence (P17972 1-498 F335A): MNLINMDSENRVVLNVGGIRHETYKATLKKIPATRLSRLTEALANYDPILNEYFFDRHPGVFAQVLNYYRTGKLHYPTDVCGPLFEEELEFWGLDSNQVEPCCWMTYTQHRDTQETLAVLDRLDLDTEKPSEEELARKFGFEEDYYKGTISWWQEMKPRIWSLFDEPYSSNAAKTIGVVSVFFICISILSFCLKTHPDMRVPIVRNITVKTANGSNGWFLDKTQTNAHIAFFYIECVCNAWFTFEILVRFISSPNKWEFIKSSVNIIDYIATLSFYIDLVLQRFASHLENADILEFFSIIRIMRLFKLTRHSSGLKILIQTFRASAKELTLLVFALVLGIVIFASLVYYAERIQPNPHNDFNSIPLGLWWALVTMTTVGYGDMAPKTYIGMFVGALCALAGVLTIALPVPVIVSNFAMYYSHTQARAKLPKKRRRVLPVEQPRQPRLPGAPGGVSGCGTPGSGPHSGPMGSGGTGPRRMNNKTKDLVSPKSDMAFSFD
The experiment in a line: two-electrode voltage clamp, Xenopus oocytes. Format: cell-based. Conditions: read-out: % inhibition at 2 mM. Background: Two-electrode voltage clamp is typically applied to oocytes expressing channels or transporters.

Molecules are shown by their SMILES.

Sequence of horse spleen apoferritin (HSAF) (P02791 2-175): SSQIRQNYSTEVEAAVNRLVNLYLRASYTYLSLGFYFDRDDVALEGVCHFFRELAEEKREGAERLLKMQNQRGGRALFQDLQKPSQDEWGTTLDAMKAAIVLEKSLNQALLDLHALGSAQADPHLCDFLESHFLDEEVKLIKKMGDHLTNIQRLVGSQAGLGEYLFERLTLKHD
Sequence of horse spleen apoferritin (HSAF) (Q8MIP0 2-182 partner): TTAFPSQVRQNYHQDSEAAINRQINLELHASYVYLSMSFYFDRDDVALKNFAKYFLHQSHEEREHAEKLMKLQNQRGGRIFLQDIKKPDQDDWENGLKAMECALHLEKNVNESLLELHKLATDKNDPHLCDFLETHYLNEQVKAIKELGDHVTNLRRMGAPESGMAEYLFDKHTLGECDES

`FC(F)(F)C(Cl)OC(F)(F)C1N=N1` (racemic) [compound 1, azi-isoflurane]: the affinity in assay [1], expressed as Kd, was 6 ± 1 µM. Further, in assay [2], the inhibition (commonly how much of the control response was suppressed) at 2000 µM turned out to be 77 ± 0.2%.
The like results for `FC(F)OC(Cl)C(F)(F)F` (stereo not shown) [isoflurane] were, in that order, 58 ± 2 µM and 67%.
